In brackets after ≈: the same amount, converted by molar mass. Values belong to the molecule of their own block, whether it stands above or below them.
Legend:
Assay in all cases: ≥ marks a high value that may be exact or a test limit, other limits are often not marked, values filed in µg/mL are converted to µM
[1] = tested on: Streptococcus mutans ATCC 25175
Escherichia coli D31 = tested on: Escherichia coli D31
[2] = tested on: Pseudomonas aeruginosa ATCC 15442
[3] = tested on: Staphylococcus aureus ATCC 25923
[4] = tested on: Candida albicans ATCC 10231
[5] = tested on: Pseudomonas aeruginosa ATCC 27853
Staphylococcus xylosus = tested on: Staphylococcus xylosus
[6] = tested on: Escherichia coli DH5alpha
Escherichia coli C600 = tested on: Escherichia coli C600
[7] = tested on: Pseudomonas aeruginosa PAO1
[8] = tested on: Staphylococcus aureus 209P
[9] = tested on: Candida albicans ATCC 64550
[10] = tested on: Staphylococcus aureus ATCC 6538
[11] = tested on: Salmonella enterica subsp. enterica serovar Typhimurium ATCC 14028
[12] = tested on: Klebsiella pneumoniae ATCC 700603
[13] = tested on: Bacillus cereus ATCC 14579
[14] = tested on: Escherichia coli ATCC 35218
[15] = tested on: Staphylococcus aureus ATCC 700699
[16] = tested on: Staphylococcus aureus ATCC 33591
[17] = tested on: Escherichia coli ATCC 25922
[18] = tested on: Staphylococcus aureus ATCC 29213
[19] = tested on: Staphylococcus epidermidis ATCC 12228
Staphylococcus aureus = tested on: Staphylococcus aureus
[20] = tested on: Staphylococcus aureus ATCC 6538P
Escherichia coli JM109 = tested on: Escherichia coli JM109
Pseudomonas aeruginosa = tested on: Pseudomonas aeruginosa

Structure (SMILES): CC(C)C[C@H](NC(=O)[C@H](C)NC(=O)[C@H](CC(N)=O)NC(=O)[C@H](Cc1ccccc1)NC(=O)[C@@H](NC(=O)[C@@H](NC(=O)CN)C(C)C)[C@@H](C)O)C(=O)N[C@@H](CCCCN)C(=O)NCC(=O)N[C@H](C(=O)N[C@@H](C)C(=O)N[C@@H](CCCCN)C(=O)N[C@H](C(=O)N[C@H](C(=O)N[C@@H](C)C(=O)N[C@@H](C)C(=O)N[C@@H](CCC(N)=O)C(=O)N[C@@H](CC(C)C)C(=O)N[C@@H](CC(C)C)C(=O)N[C@@H](CCCCN)C(=O)N[C@H](C(=O)N[C@@H](C)C(=O)N[C@@H](CCCN=C(N)N)C(N)=O)[C@@H](C)O)C(C)C)[C@@H](C)O)C(C)C [GVTFNALKGVAKTVAAQLLKTAR]
- MIC [1]: ≥ 100 µM
- MIC (Escherichia coli D31): ≥ 64 µM
- MIC [2]: ≥ 100 µM
- MIC [3]: 16 µM (≈ 37.7 µg/mL)
- MIC [4]: > 100 µM

Structure (SMILES): CC[C@H](C)[C@H](NC(=O)[C@H](CC(C)C)NC(=O)[C@@H](NC(=O)[C@H](CCCN=C(N)N)NC(=O)[C@H](CCCCN)NC(=O)[C@H](CCCN=C(N)N)NC(=O)[C@H](CCCCN)NC(=O)[C@H](CCCN=C(N)N)NC(=O)[C@H](CCCCN)NC(=O)[C@H](CCCN=C(N)N)NC(=O)[C@H](CCCCN)NC(=O)[C@H](CC(C)C)NC(=O)[C@@H](NC(=O)[C@@H](N)CC(C)C)[C@@H](C)CC)[C@@H](C)CC)C(=O)O [LILKRKRKRKRILI]
- MIC [5]: 128 µM (≈ 235 µg/mL)
- MIC (Staphylococcus xylosus): ≥ 64 µM
- MIC [6]: ≥ 64 µM

Structure (SMILES): CC(C)[C@@H]1NC(=O)CNC(=O)[C@H](CCCN=C(N)N)NC(=O)[C@H](C(C)C)NC(=O)[C@H](CCCN=C(N)N)NC(=O)[C@H](C)NC(=O)[C@H](Cc2ccc(O)cc2)NC(=O)[C@H](C(C)C)NC(=O)[C@@H](NC(=O)[C@H](Cc2c[nH]c3ccccc23)NC(=O)[C@@H](N)CCCN=C(N)N)CSSC[C@@H](C(=O)N[C@@H](CCCN=C(N)N)C(=O)O)NC(=O)[C@H](CCCN=C(N)N)NC(=O)[C@H](CCCN=C(N)N)NC(=O)[C@H](Cc2ccc(O)cc2)NC(=O)[C@H](CCCN=C(N)N)NC1=O [RWCVYARVRGVRYRRCR]
- MIC (Escherichia coli C600): 3.13 µM (≈ 7.05 µg/mL)
- MIC [7]: 6.25 µM (≈ 14.1 µg/mL)
- MIC [8]: 3.13 µM (≈ 7.05 µg/mL)

Structure (SMILES): CC[C@H](C)[C@H](NC(=O)[C@H](CC(=O)O)NC(=O)[C@H](CCCCN)NC(=O)[C@H](C)NC(=O)[C@H](C)NC(=O)CNC(=O)[C@H](CCCCN)NC(=O)[C@H](CC(C)C)NC(=O)[C@@H](NC(=O)[C@H](CC(=O)O)NC(=O)[C@@H](NC(=O)[C@@H](NC(=O)CN)C(C)C)C(C)C)[C@@H](C)CC)C(=O)N[C@@H](C)C(=O)NCC(=O)N[C@@H](Cc1cnc[nH]1)C(=O)N[C@@H](CC(C)C)C(=O)N[C@@H](C)C(=O)N[C@@H](CO)C(=O)N[C@@H](CCCCN)C(=O)N[C@H](C(=O)N[C@@H](C)C(=O)N[C@@H](CC(N)=O)C(=O)N[C@@H](CCCCN)C(=O)N[C@@H](CC(C)C)C(N)=O)C(C)C [GVVDILKGAAKDIAGHLASKVANKL]
- MIC [5]: > 100 µM
- MIC [12]: > 100 µM
- MIC [15]: ≥ 100 µM
- MIC [16]: ≥ 100 µM
- MIC [17]: > 100 µM
- MIC [18]: > 100 µM

Structure (SMILES): CC[C@H](C)[C@H](NC(=O)[C@H](C)NC(=O)[C@H](CC(C)C)NC(=O)[C@H](CS)NC(=O)[C@H](CC(C)C)NC(=O)[C@H](C)NC(=O)[C@H](C)NC(=O)[C@H](CS)NC(=O)[C@@H](N)CC(C)C)C(=O)NCC(=O)N[C@@H](CCCN=C(N)N)C(=O)N[C@@H](CCCN=C(N)N)C(N)=O [LCAALCLAIGRR]
- MIC (Staphylococcus aureus): 38.1 µM (≈ 48 µg/mL)
- MIC [20]: 4.76 µM (≈ 6 µg/mL)
- MIC (Escherichia coli JM109): 19.1 µM (≈ 24 µg/mL)

Structure (SMILES): CC[C@H](C)[C@H](NC(=O)[C@H](C)NC(=O)[C@H](CC(C)C)NC(=O)[C@H](CCCN=C(N)N)NC(=O)[C@H](CC(C)C)NC(=O)[C@H](C)N)C(=O)N[C@@H](CCCN=C(N)N)C(=O)N[C@@H](CCCN=C(N)N)C(=O)N[C@@H](CCCN=C(N)N)C(N)=O [ALRLAIRRR]
- MIC (Staphylococcus aureus): > 42.7 µM
- MIC [20]: 1.78 µM (≈ 2 µg/mL)
- MIC (Pseudomonas aeruginosa): 2.67 µM (≈ 3 µg/mL)
- MIC (Escherichia coli JM109): 1.33 µM (≈ 1.5 µg/mL)

More lines, now with the values ahead:

- MIC (Staphylococcus xylosus): ≥ 64 µM
- MIC [6]: ≥ 64 µM
Structure (SMILES): NCCCC[C@H](NC(=O)[C@H](CCCN=C(N)N)NC(=O)[C@H](CCCCN)NC(=O)CNC(=O)[C@H](CCCCN)NC(=O)[C@H](CCCN=C(N)N)NC(=O)[C@@H](N)CCCCN)C(=O)O [KRKGKRK]

- MIC [9]: ≥ 100 µM
Structure (SMILES): NCCCC[C@H](NC(=O)[C@H](CCCCN)NC(=O)[C@H](CCCN=C(N)N)NC(=O)[C@H](CCCN=C(N)N)NC(=O)[C@H](Cc1ccc(O)cc1)NC(=O)[C@H](Cc1ccc(O)cc1)NC(=O)[C@H](CCCCN)NC(=O)[C@H](CCCN=C(N)N)NC(=O)CNC(=O)[C@@H](N)CCCN=C(N)N)C(=O)O [RGRKYYRRKK]

- MIC [10]: 43.2 µM (≈ 59.7 µg/mL)
- MIC [11]: 12.2 µM (≈ 16.8 µg/mL)
- MIC [1]: 23.6 µM (≈ 32.6 µg/mL)
- MIC [12]: 13.3 µM (≈ 18.4 µg/mL)
- MIC [13]: ≥ 41.5 µM
- MIC [14]: 8.52 µM (≈ 11.8 µg/mL)
Structure (SMILES): CC[C@H](C)[C@H](N)C(=O)N[C@@H](CC(N)=O)C(=O)N[C@@H](CC(C)C)C(=O)N[C@@H](CCCCN)C(=O)N[C@@H](C)C(=O)N[C@H](C(=O)N[C@@H](C)C(=O)N[C@@H](C)C(=O)N[C@@H](CC(C)C)C(=O)N[C@H](C(=O)N[C@@H](CCCCN)C(=O)N[C@@H](CCCCN)C(=O)N[C@H](C(=O)O)C(C)C)C(C)C)[C@@H](C)CC [INLKAIAALVKKV]

- MIC [5]: 100 µM (≈ 256 µg/mL)
- MIC [12]: 50 µM (≈ 128 µg/mL)
- MIC [15]: ≥ 100 µM
- MIC [16]: ≥ 100 µM
- MIC [17]: 12.5 µM (≈ 32 µg/mL)
- MIC [18]: > 100 µM
Structure (SMILES): CC[C@H](C)[C@H](NC(=O)[C@H](CC(=O)O)NC(=O)[C@H](CCCCN)NC(=O)[C@H](C)NC(=O)[C@H](C)NC(=O)CNC(=O)[C@H](CCCCN)NC(=O)[C@H](CC(C)C)NC(=O)[C@@H](NC(=O)[C@H](CC(=O)O)NC(=O)[C@@H](NC(=O)[C@@H](NC(=O)CN)C(C)C)C(C)C)[C@@H](C)CC)C(=O)N[C@@H](C)C(=O)N[C@@H](C)C(=O)N[C@@H](Cc1cnc[nH]1)C(=O)N[C@@H](CC(C)C)C(=O)N[C@@H](C)C(=O)N[C@@H](CO)C(=O)N[C@@H](CCCCN)C(=O)N[C@H](C(=O)N[C@@H](CCSC)C(=O)N[C@@H](CC(N)=O)C(=O)N[C@@H](CCCCN)C(=O)N[C@@H](CC(C)C)C(N)=O)C(C)C [GVVDILKGAAKDIAAHLASKVMNKL]

- MIC [19]: 5.77 µM (≈ 7.99 µg/mL)
- MIC [17]: 90.1 µM (≈ 125 µg/mL)
- MIC [9]: ≥ 100 µM
- MIC [18]: 11.5 µM (≈ 16 µg/mL)
Structure (SMILES): CC(C)[C@H](NC(=O)[C@H](Cc1c[nH]c2ccccc12)NC(=O)[C@H](CCCCN)NC(=O)[C@@H](N)CCCN=C(N)N)C(=O)N[C@@H](Cc1c[nH]c2ccccc12)C(=O)N[C@@H](Cc1c[nH]c2ccccc12)C(=O)N[C@@H](CCCN=C(N)N)C(=O)N[C@@H](CC(N)=O)C(=O)N[C@@H](CCCN=C(N)N)C(N)=O [RKWVWWRNR]

- MIC (Staphylococcus xylosus): ≥ 64 µM
- MIC [6]: ≥ 64 µM
Structure (SMILES): CC[C@H](C)[C@H](NC(=O)[C@H](CC(C)C)NC(=O)[C@@H](NC(=O)[C@H](CC(C)C)NC(=O)[C@@H](NC(=O)[C@H](CC(C)C)NC(=O)[C@@H](NC(=O)[C@H](CCCCN)NC(=O)[C@H](CCCN=C(N)N)NC(=O)[C@@H](N)CCCCN)[C@@H](C)CC)[C@@H](C)CC)[C@@H](C)CC)C(=O)N[C@@H](CC(C)C)C(=O)O [KRKILILILIL]

— DBAASP
